Measurements as given in paper PMC4997860, “The Heterodimeric ABC Transporter EfrCD Mediates Multidrug Efflux in Enterococcus faecalis” (Antimicrobial Agents and Chemotherapy, 2016).

Columns and labels:
Assay in all cases: ATPase modulation in proteoliposomes, malachite green
Format in all cases: biochemical
[1] = target: T1, EfrEF (Enterococcus faecalis, UniProt Q832J9+Q832K0); conditions: 2.5 uM Hoechst 33342; 1 mM ATP, 10 mM MgSO4, pH 7.0, 30°C; bell-shaped curve
T1 construct: gene EF_2226; full-length heterodimer, N-terminal deca-His tag on first chain cleaved with 3C protease, expressed in L. lactis NZ9000 dlmrA dlmrCD; proteoliposomes
T1 sequence (Q832K0 entry or part of it): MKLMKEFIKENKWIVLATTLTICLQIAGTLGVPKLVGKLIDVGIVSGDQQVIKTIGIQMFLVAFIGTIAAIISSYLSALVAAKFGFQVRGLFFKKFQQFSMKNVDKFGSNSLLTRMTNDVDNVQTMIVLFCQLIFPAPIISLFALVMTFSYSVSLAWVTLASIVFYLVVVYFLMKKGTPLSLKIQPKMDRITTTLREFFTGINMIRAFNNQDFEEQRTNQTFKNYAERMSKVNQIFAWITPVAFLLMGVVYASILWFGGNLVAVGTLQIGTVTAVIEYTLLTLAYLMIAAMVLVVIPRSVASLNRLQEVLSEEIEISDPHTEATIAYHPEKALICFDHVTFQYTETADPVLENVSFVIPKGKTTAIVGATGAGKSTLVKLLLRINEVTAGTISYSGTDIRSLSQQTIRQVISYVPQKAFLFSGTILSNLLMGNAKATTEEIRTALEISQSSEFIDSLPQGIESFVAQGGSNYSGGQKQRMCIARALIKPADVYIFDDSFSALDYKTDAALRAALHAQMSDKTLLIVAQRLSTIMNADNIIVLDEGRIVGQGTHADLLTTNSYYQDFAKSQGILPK
T1 sequence (Q832J9 entry or part of it): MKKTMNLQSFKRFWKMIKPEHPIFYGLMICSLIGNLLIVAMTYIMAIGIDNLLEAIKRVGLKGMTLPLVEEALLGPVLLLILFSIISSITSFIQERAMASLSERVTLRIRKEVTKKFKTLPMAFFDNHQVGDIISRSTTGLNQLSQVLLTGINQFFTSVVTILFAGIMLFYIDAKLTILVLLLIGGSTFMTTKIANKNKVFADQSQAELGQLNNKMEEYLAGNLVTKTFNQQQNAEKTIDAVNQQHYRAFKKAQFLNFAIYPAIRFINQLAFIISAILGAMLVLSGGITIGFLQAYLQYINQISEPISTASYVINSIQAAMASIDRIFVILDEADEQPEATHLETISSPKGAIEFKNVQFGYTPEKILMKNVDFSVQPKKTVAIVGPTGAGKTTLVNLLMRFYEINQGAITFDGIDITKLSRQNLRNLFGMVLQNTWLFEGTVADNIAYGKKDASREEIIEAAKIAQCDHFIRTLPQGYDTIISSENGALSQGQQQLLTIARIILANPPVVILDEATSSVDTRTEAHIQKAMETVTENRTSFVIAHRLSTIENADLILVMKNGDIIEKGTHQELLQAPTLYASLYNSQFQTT

[2] = target: T2, EfrAB (Enterococcus faecalis, UniProt Q82ZX7+Q82ZX8); conditions: 20 uM Hoechst 33342; 1 mM ATP, 10 mM MgSO4, pH 7.0, 30°C; bell-shaped curve
T2 construct: gene EF_2920; full-length heterodimer, N-terminal deca-His tag on first chain cleaved with 3C protease, expressed in L. lactis NZ9000 dlmrA dlmrCD; proteoliposomes
T2 sequence (Q82ZX8 entry or part of it): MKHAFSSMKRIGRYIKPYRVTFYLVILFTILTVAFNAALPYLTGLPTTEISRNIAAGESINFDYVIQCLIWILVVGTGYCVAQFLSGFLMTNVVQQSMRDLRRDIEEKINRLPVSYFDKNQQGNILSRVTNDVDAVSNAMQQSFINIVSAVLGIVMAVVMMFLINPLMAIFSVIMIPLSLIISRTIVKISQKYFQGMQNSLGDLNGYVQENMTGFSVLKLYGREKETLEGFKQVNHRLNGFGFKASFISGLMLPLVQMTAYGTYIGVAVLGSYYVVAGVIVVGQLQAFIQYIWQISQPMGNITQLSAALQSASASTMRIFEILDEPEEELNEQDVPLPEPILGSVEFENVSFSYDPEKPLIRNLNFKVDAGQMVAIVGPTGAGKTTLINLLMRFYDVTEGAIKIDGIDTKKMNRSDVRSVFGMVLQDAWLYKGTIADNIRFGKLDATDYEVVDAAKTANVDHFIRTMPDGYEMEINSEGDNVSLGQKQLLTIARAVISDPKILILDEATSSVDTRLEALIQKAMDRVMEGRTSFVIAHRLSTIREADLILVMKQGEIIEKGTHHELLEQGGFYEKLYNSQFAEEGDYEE
T2 sequence (Q82ZX7 entry or part of it): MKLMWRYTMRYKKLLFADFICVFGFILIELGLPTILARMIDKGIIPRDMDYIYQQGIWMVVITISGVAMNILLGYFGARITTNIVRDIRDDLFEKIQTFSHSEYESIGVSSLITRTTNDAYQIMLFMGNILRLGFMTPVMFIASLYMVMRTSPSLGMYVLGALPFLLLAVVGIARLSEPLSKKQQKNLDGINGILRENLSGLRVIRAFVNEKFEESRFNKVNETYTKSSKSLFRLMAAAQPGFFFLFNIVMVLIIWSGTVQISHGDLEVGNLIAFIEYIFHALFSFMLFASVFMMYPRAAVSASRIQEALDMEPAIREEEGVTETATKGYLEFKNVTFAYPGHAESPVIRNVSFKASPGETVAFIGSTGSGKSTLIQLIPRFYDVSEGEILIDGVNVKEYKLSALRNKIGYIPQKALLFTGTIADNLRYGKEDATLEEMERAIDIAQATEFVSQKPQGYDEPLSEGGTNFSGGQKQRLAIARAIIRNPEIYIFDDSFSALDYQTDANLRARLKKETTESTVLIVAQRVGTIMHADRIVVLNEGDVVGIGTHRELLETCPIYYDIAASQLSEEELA

[3] = target: T3, EfrCD (Enterococcus faecalis, UniProt Q837P4+Q837P5); conditions: 0.1-200 uM drug; 1 mM ATP, 10 mM MgSO4, pH 7.0, 30°C; bell-shaped curve
T3 construct: gene EF_0789; full-length heterodimer, N-terminal deca-His tag on EfrC cleaved with 3C protease (tag present in cells), expressed in L. lactis NZ9000 dlmrA dlmrCD; proteoliposomes
T3 sequence (Q837P5 entry or part of it): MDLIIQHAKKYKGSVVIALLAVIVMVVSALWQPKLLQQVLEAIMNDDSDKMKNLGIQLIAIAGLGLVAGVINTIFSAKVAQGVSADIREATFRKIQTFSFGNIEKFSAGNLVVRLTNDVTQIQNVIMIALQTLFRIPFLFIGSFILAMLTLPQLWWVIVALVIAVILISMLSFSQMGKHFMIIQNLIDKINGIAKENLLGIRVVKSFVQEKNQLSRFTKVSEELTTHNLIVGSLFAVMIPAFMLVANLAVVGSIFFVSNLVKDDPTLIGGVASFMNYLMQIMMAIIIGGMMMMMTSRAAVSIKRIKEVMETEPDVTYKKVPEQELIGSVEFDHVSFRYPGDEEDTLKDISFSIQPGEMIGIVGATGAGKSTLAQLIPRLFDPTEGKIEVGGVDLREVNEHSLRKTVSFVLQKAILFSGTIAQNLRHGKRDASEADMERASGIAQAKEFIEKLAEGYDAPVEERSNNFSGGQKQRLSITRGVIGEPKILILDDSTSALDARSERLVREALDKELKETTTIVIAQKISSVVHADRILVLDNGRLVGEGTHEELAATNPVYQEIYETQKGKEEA
T3 sequence (Q837P4 entry or part of it): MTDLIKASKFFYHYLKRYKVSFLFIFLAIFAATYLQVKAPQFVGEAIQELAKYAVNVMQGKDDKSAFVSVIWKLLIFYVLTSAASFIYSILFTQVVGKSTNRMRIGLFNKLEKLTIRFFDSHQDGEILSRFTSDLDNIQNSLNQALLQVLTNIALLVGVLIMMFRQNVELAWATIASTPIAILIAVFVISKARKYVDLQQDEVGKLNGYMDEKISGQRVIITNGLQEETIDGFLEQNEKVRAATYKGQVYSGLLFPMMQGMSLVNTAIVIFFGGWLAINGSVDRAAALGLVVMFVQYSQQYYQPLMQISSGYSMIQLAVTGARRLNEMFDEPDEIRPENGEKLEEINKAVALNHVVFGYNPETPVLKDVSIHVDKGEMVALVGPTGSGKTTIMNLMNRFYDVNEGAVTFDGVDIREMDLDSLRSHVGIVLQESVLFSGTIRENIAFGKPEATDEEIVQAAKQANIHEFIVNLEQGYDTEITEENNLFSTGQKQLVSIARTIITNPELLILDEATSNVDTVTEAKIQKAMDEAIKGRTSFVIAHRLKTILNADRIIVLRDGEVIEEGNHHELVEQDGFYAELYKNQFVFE

[4] = target: T1, EfrEF; conditions: 0.1-200 uM drug; 1 mM ATP, 10 mM MgSO4, pH 7.0, 30°C; bell-shaped curve

## CCOc1ccc(-c2nc3ccc(-c4nc5ccc(N6CCN(C)CC6)cc5[nH]4)cc3[nH]2)cc1 [Hoechst 33342]
[1]
  maximal ATPase stimulation (basal = 100%): 130%
[2]
  maximal ATPase stimulation (basal = 100%): 165%

## COc1cccc2c1C(=O)c1c(O)c3c(c(O)c1C2=O)C[C@@](O)(C(C)=O)C[C@@H]3O[C@H]1C[C@H](N)[C@H](O)[C@H](C)O1 [daunorubicin]
[3]
  drug-modulated ATPase activity: a strong response in the form of a bell-shaped curve was seen for EfrCD

## CC[n+]1c(-c2ccccc2)c2cc(N)ccc2c2ccc(N)cc21 [ethidium]
[4]
  drug-modulated ATPase activity: For ethidium, a bell-shaped curve with a large magnitude was observed for EfrEF
